Results taken from US9416124B2, “Substituted 2-alkyl-1-OXO-N-phenyl-3-heteroaryl-1,2,3,4-tetrahydroisoquinoline-4-carboxamides for antimalarial therapies” (ST. JUDE CHILDREN'S RESEARCH HOSPITAL, priority 2011, dated 2016).

test system: P. falciparum 3D7; assay: P. falciparum drug susceptibility assay (3D7); assay type: cell-based, Plasmodium falciparum; settings: Plasmodium falciparum; 3D7 strain; racemate unless indicated; read-out: 3D7_EC50
Method: Parasites were grown as previously described in Mallari, J. P., Guiguemde, W. A., and Guy, R. K., Antimalarial activity of thiosemicarbazones and purine derived nitriles, Bioorg Med Chem Lett 19 (13), 3546 (2009). […] DMSO inhibitor stock solutions were pin-transferred (V&P Scientific) into the assay plate and background fluorescence was measured in both relevant channels (485 nm /535 nm, 612 nm /665 nm) in an Envision plate reader (PerkinElmer). Then 20 μl of a synchronized culture suspension (1% rings, 10% hematocrit) were added per well, thus making a final hematocrit and parasitemia of 5% and 1% respectively. Assay plates were incubated for 72 h and parasitemia was determined based on a modified protocol. (Smilkstein, M. et al., Simple and inexpensive fluorescence-based technique for high-throughput antimalarial drug screening. Antimicrob Agents Chemother 48 (5), 1803 (2004)). Briefly, 5 μl of mixed DNA dye solution in RPMI (5X SYBR Green I, 1 μM YOYO-3, 1% v/v Triton X-100, 1 mg/ml saponin) were added per well, assay plates were shaken for 30 s at 2000 rpm, incubated in the dark for 4 h, then read as previously described.

| SMILES | EC50 [nM] |
| --- | --- |
| N#Cc1cc(NC(=O)[C@H]2c3ccccc3C(=O)N(CC(F)(F)F)[C@@H]2c2cn[nH]c2)ccc1F (racemic) [Example 2, N-(3-cyano-4-fluorophenyl)-1-oxo-3-(1H-pyrazol-4-yl)-2-(2,2,2-trifluoroethyl)-1,2,3,4-tetrahydroisoquinoline-4-carboxamide] | 41 |
| Cn1cc([C@@H]2[C@@H](C(=O)Nc3ccc(F)c(C#N)c3)c3ccccc3C(=O)N2CC(F)(F)F)cn1 (racemic) [Example 4, N-(3-cyano-4-fluorophenyl)-3-(1-methyl-1H-pyrazol-4-yl)-1-oxo-2-(2,2,2-trifluoroethyl)-1,2,3,4-tetrahydroisoquinoline-4-carboxamide] | 24 |
| N#Cc1cc(NC(=O)[C@H]2c3ccccc3C(=O)N(CC(F)(F)F)[C@@H]2c2cccnc2)ccc1F (racemic) [Example 6, N-(3-cyano-4-fluorophenyl)-1-oxo-3-(pyridin-3-yl)-2-(2,2,2-trifluoroethyl)-1,2,3,4-tetrahydroisoquinoline-4-carboxamide] | 54 |
| CC(C)CN1C(=O)c2ccccc2[C@H](C(=O)Nc2cc(Cl)cc(C#N)c2)[C@H]1c1cn[nH]c1 (racemic) [Example 7, N-(3-chloro-5-cyanophenyl)-2-isobutyl-1-oxo-3-(1H-pyrazol-4-yl)-1,2,3,4-tetrahydroisoquinoline-4-carboxamide] | 3 |
| N#Cc1cc(Cl)cc(NC(=O)[C@H]2c3ccccc3C(=O)N(CC(F)(F)F)[C@@H]2c2cn[nH]c2)c1 (racemic) [Example 8, N-(3-chloro-5-cyanophenyl)-1-oxo-3-(1H-pyrazol-4-yl)-2-(2,2,2-trifluoroethyl)-1,2,3,4-tetrahydroisoquinoline-4-carboxamide] | 26 |
| CC(C)CN1C(=O)c2ccccc2[C@H](C(=O)Nc2cc(Cl)cc(C#N)c2)[C@H]1c1cnn(C)c1 (racemic) [Example 9, N-(3-chloro-5-cyanophenyl)-2-isobutyl-3-(1-methyl-1H-pyrazol-4-yl)-1-oxo-1,2,3,4-tetrahydroisoquinoline-4-carboxamide] | 8 |
| Cn1cc([C@@H]2[C@@H](C(=O)Nc3cc(Cl)cc(C#N)c3)c3ccccc3C(=O)N2CC(F)(F)F)cn1 (racemic) [Example 10, N-(3-chloro-5-cyanophenyl)-3-(1-methyl-1H-pyrazol-4-yl)-1-oxo-2-(2,2,2-trifluoroethyl)-1,2,3,4-tetrahydroisoquinoline-4-carboxamide] | 6 |
| CC(C)CN1C(=O)c2ccccc2[C@H](C(=O)Nc2cc(Cl)cc(C#N)c2)[C@H]1c1cccnc1 (racemic) [Example 11, N-(3-chloro-5-cyanophenyl)-2-isobutyl-1-oxo-3-(pyridin-3-yl)-1,2,3,4-tetrahydroisoquinoline-4-carboxamide] | 20 |
| N#Cc1cc(Cl)cc(NC(=O)[C@H]2c3ccccc3C(=O)N(CC(F)(F)F)[C@@H]2c2cccnc2)c1 (racemic) [Example 12, N-(3-chloro-5-cyanophenyl)-1-oxo-3-(pyridin-3-yl)-2-(2,2,2-trifluoroethyl)-1,2,3,4-tetrahydroisoquinoline-4-carboxamide] | 36 |
| CC(C)CN1C(=O)c2ccccc2[C@H](C(=O)Nc2cccc(C#N)c2)[C@H]1c1cn[nH]c1 (racemic) [Example 13, N-(3-cyanophenyl)-2-isobutyl-1-oxo-3-(1H-pyrazol-4-yl)-1,2,3,4-tetrahydroisoquinoline-4-carboxamide] | 7 |
| N#Cc1cccc(NC(=O)[C@H]2c3ccccc3C(=O)N(CC(F)(F)F)[C@@H]2c2cn[nH]c2)c1 (racemic) [Example 14, N-(3-cyanophenyl)-1-oxo-3-(1H-pyrazol-4-yl)-2-(2,2,2-trifluoroethyl)-1,2,3,4-tetrahydroisoquinoline-4-carboxamide] | 30 |
| CC(C)CN1C(=O)c2ccccc2[C@H](C(=O)Nc2cccc(C#N)c2)[C@H]1c1cnn(C)c1 (racemic) [Example 15, N-(3-cyanophenyl)-2-isobutyl-3-(1-methyl-1H-pyrazol-4-yl)-1-oxo-1,2,3,4-tetrahydroisoquinoline-4-carboxamide] | 36 |

Now from value to molecule:

| EC50 [nM] | SMILES |
| --- | --- |
| 22 | Cn1cc([C@@H]2[C@@H](C(=O)Nc3cccc(C#N)c3)c3ccccc3C(=O)N2CC(F)(F)F)cn1 (racemic) [Example 16, N-(3-cyanophenyl)-3-(1-methyl-1H-pyrazol-4-yl)-1-oxo-2-(2,2,2-trifluoroethyl)-1,2,3,4-tetrahydroisoquinoline-4-carboxamide] |
| 58 | CC(C)CN1C(=O)c2ccccc2[C@H](C(=O)Nc2cccc(C#N)c2)[C@H]1c1cccnc1 (racemic) [Example 17, N-(3-cyanophenyl)-2-isobutyl-1-oxo-3-(pyridin-3-yl)-1,2,3,4-tetrahydroisoquinoline-4-carboxamide] |
| 24 | N#Cc1cccc(NC(=O)[C@H]2c3ccccc3C(=O)N(CC(F)(F)F)[C@@H]2c2cccnc2)c1 (racemic) [Example 18, N-(3-cyanophenyl)-1-oxo-3-(pyridin-3-yl)-2-(2,2,2-trifluoroethyl)-1,2,3,4-tetrahydroisoquinoline-4-carboxamide] |
| 4 | CC(C)CN1C(=O)c2ccccc2[C@H](C(=O)Nc2cc(F)cc(C#N)c2)[C@H]1c1cn[nH]c1 (racemic) [Example 19, N-(3-cyano-5-fluorophenyl)-2-isobutyl-1-oxo-3-(1H-pyrazol-4-yl)-1,2,3,4-tetrahydroisoquinoline-4-carboxamide] |
| 9 | N#Cc1cc(F)cc(NC(=O)[C@H]2c3ccccc3C(=O)N(CC(F)(F)F)[C@@H]2c2cn[nH]c2)c1 (racemic) [Example 20, N-(3-cyano-5-fluorophenyl)-1-oxo-3-(1H-pyrazol-4-yl)-2-(2,2,2-trifluoroethyl)-1,2,3,4-tetrahydroisoquinoline-4-carboxamide] |
| 21 | CC(C)CN1C(=O)c2ccccc2[C@H](C(=O)Nc2cc(F)cc(C#N)c2)[C@H]1c1cnn(C)c1 (racemic) [Example 21, N-(3-cyano-5-fluorophenyl)-2-isobutyl-3-(1-methyl-1H-pyrazol-4-yl)-1-oxo-1,2,3,4-tetrahydroisoquinoline-4-carboxamide] |
| 9 | Cn1cc([C@@H]2[C@@H](C(=O)Nc3cc(F)cc(C#N)c3)c3ccccc3C(=O)N2CC(F)(F)F)cn1 (racemic) [Example 22, N-(3-cyano-5-fluorophenyl)-3-(1-methyl-1H-pyrazol-4-yl)-1-oxo-2-(2,2,2-trifluoroethyl)-l,2,3,4-tetrahydroisoquinoline-4-carboxamide] |
| 20 | CC(C)CN1C(=O)c2ccccc2[C@H](C(=O)Nc2cc(F)cc(C#N)c2)[C@H]1c1cccnc1 (racemic) [Example 23, N-(3-cyano-5-fluorophenyl)-2-isobutyl-1-oxo-3-(pyridin-3-yl)-1,2,3,4-tetrahydroisoquinoline-4-carboxamide] |
| 38 | N#Cc1cc(F)cc(NC(=O)[C@H]2c3ccccc3C(=O)N(CC(F)(F)F)[C@@H]2c2cccnc2)c1 (racemic) [Example 24, N-(3-cyano-5-fluorophenyl)-1-oxo-3-(pyridin-3-yl)-2-(2,2,2-trifluoroethyl)-1,2,3,4-tetrahydroisoquinoline-4-carboxamide] |
| 11 | CC(C)CN1C(=O)c2ccccc2[C@H](C(=O)Nc2cccc(OC(F)(F)F)c2)[C@H]1c1cn[nH]c1 (racemic) [Example 25, 2-isobutyl-1-oxo-3-(1H-pyrazol-4-yl)-N-(3-(trifluoromethoxy)phenyl)-1,2,3,4-tetrahydroisoquinoline-4-carboxamide] |
